From patent US20220194935A1, “PHENETHYL SUBSTITUTED IMIDAZO[4,5-C]QUINOLINE COMPOUNDS WITH AN N-1 BRANCHED GROUP” (3M INNOVATIVE PROPERTIES COMPANY, priority 2019, published 2022)

Target: T1, human TLR8 (Homo sapiens, UniProt Q9NR97)
T1 construct: host or cells: HEK293 (HEK-BLUE-hTLR8)
T1 sequence (Q9NR97 27-1041): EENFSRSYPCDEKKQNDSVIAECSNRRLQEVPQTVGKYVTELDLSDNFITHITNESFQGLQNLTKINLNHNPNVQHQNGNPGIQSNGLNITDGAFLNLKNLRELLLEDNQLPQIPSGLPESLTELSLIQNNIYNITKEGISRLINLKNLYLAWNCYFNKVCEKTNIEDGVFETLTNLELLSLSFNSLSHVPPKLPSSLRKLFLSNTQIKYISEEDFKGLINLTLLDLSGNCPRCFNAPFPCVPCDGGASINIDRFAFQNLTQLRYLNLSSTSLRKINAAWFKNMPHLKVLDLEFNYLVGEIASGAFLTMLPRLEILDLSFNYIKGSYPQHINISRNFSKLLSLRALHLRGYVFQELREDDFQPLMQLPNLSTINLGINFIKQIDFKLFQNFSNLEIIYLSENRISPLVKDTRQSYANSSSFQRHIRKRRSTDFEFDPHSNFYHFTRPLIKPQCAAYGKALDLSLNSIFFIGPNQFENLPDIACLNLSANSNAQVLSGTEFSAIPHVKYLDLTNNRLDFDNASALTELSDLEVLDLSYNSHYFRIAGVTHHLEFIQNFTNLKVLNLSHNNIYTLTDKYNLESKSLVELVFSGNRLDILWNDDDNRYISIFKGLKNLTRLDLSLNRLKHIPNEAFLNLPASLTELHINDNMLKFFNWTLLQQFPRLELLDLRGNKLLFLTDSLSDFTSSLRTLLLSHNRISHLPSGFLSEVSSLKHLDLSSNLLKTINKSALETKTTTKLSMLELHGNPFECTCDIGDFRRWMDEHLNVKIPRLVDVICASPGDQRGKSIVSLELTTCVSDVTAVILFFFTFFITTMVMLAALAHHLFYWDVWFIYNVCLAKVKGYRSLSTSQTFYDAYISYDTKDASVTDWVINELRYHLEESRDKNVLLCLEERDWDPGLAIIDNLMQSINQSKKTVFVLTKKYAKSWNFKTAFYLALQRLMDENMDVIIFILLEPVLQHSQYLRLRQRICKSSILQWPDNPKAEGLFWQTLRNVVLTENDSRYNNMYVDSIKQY
Assay: TLR Activation and Specificity, HEK-BLUE-hTLR8 SEAP reporter cells
Assay type: cell-based
Details: 16-20 hours, at least 2× vehicle control, tested 0.01-30 micromolar
Description: HEK-BLUE-hTLR7 or hTLR8 reporter cells were obtained from InvivoGen, San Diego, Calif. According to the manufacturer's description, these reporter cells were prepared by co-transfection of HEK293 cells with an inducible secreted embryonic alkaline phosphatase (SEAP) reporter gene and either the human TLR7 or TLR8 gene. The SEAP reporter gene was placed under the control of an IFN-β minimal promoter fused to five NF-κB and AP-1-binding sites. In the presence of a TLR ligand, activation of NF-κB and AP-1 occurs, resulting in a corresponding increase in SEAP levels.
In the assay, the HEK cells were grown and maintained using standard cell culture techniques in a growth medium that contained Dulbecco's Modified Eagle Medium (ThermoFisher Scientific Incorporated, Waltham, Mass.) supplemented with 1% penicillin/streptomycin and 10% heat-inactivated Gibco fetal bovine serum (ThermoFisher Scientific). Each compound was solubilized in DMSO to create a 3 millimole (mM) stock solution. The stock solution was then further diluted with the growth medium to prepare serial dilutions. Each test compound was tested at a concentration of 30, 10, 3.3, 1.1, 0.37, 0.12, 0.04, and 0.01 micromolar using a 96-well format with 5×10^4 cells and 200 microliters of growth medium per well.
For each compound, hTLR7, hTLR8, and their respective null control HEK cells were screened. DMSO serially diluted into the growth medium served as the vehicle control. Cell culture supernatants containing the SEAP reporter were collected after an incubation period of 16-20 hours in a cell culture incubator (37° C. and 5% CO2), and either analyzed immediately or stored at −80° C. SEAP levels were measured using the colorimetric enzyme assay (QUANTI-BLUE (InvivoGen) according to manufacturer's instructions.
Specifically, the minimum effective concentration of each compound (micromolar) was determined as the lowest concentration of the compound that produced a SEAP expression response at least 2× greater than that observed with the vehicle control wells.

With `Nc1nc2ccccc2c2c1ncn2CCc1ccccc1` [Comparative Example 1, 1-phenethyl-1H-imidazo[4,5-c]quinolin-4-amine, reference compound] as the molecule, how does the “MEC to Produce TLR Activation, TLR 8” value read?
Its value is >30 µM.

With `C[C@H](Cc1ccccc1)n1cnc2c(N)nc3ccccc3c21` [Example 1, 1-[(1R)-1-methyl-2-phenyl-ethyl]imidazo[4,5-c]quinolin-4-amine] as the molecule, how does the “MEC to Produce TLR Activation, TLR 8” value read?
Its value is >30 µM.

For `CCCC[C@H](Cc1ccccc1)n1cnc2c(N)nc3ccccc3c21` [Example 2, 1-[(1R)-1-benzylpentyl]imidazo[4,5-c]quinolin-4-amine], which “MEC to Produce TLR Activation, TLR 8” value is on record?
The value was 10 µM.

Which “MEC to Produce TLR Activation, TLR 8” value does the source give for `COC[C@@H](Cc1ccccc1)n1cnc2c(N)nc3ccccc3c21` [Example 3, 1-[(1R)-1-benzyl-2-methoxy-ethyl]imidazo[4,5-c]quinolin-4-amine] here?
Its value is >30 µM.

`CCOC[C@@H](Cc1ccccc1)n1cnc2c(N)nc3ccccc3c21` [Example 4, 1-[(1R)-1-benzyl-2-ethoxy-ethyl]imidazo[4,5-c]quinolin-4-amine] was tested. Which “MEC to Produce TLR Activation, TLR 8” value did it give?
Its value is >30 µM.

`COC[C@H](Cc1ccccc1)n1cnc2c(N)nc3ccccc3c21` [Example 5, 1-[(1S)-1-benzyl-2-methoxy-ethyl]imidazo[4,5-c]quinolin-4-amine] was tested. Which “MEC to Produce TLR Activation, TLR 8” value did it give?
Its value is 10 µM.

Which “MEC to Produce TLR Activation, TLR 8” value does the source give for `CCOC[C@H](Cc1ccccc1)n1cnc2c(N)nc3ccccc3c21` [Example 6, 1-[(1S)-1-benzyl-2-ethoxy-ethyl]imidazo[4,5-c]quinolin-4-amine] here?
The value was 3.3 µM.

Which “MEC to Produce TLR Activation, TLR 8” value does the source give for `CCCCOc1ccc(C[C@@H](CCCC)n2cnc3c(N)nc4ccccc4c32)cc1` [Example 7, 1-[(1R)-1-[(4-butoxyphenyl)methyl]pentyl]imidazo[4,5-c]quinolin-4-amine] here?
Its value is 10 µM.
